Structures can show the parent of a compound that is named as a salt. Where two headings read alike, the source gives them in different places.
Legend:
SKOV-3 cells [1] = type: cell-based, human; settings: 48 h
Procedure: (§1) The compound of Example 12 and the compound of Example 13 were measured for cytotoxicity thereof on SKOV-3 cells, A549 cells, and L1210 cells by using MTS method.
(§2) An evaluation method of the compound of Example 12 is as follows: To each cell culturing in a medium that is absent of folate, the compound of Example 12 was treated for two hours, and then the cells transferred to a fresh medium absent of the compound and continuously maintained and cultured for 48 hours. Surviving cells after 48 hours were counted by using MTS method.
as §2, with “13” for “12”, “six” for “two”
(§3) It has been reported that SKOV-3 cells and L1210 cells express folate acceptors in medium to high expression level on their cell surface. It has been reported that A549 cells express folate acceptors in low expression level or undetectable level on its cell surface (Analytical Biochemistry, (2005), 338: pp. 284-293; Molecular Cancer Therapeutics, (2015), 14: pp. 1605 to 13).

A549 cells [2] = type: cell-based, human; settings: 48 h
Procedure: as §1, §2
as §2, with “13” for “12”, “six” for “two”
as §3

L1210 cells [3] = type: cell-based, mouse; settings: 48 h
Procedure: as §1, §2
as §2, with “13” for “12”, “six” for “two”
as §3

[4] = Parallel Artificial Membrane Permeation Assay (PAMPA), Pre-coated PAMPA Plate System (Corning)
Procedure: Reference Example 14, the Compound of Reference Example 16, and the Compound of Comparative Example was Evaluated by Using Pre-Coated PAMPA PlateSystem (Corning)
A frozen-stored, Pre-coated PAMPA Plate System was allowed to stand at room temperature for thirty minutes or more. Subsequently, 320 μL of the standard solution was added to a Donor side plate of Pre-coated PAMPA Plate System, and 200 μL of the PBS containing 20% of methanol was added to an Acceptor side plate. Both of the plates were set for the system, and the plates allowed to stand at room temperature for five hours. The reaction liquid in each well of the Donor side and Acceptor side plates was subjected to LC/MS analysis (hereinafter, LC/MS-3), and the concentration of the compounds in each well calculated.
Using the obtained concentration of the compounds in the reaction liquid in each well, the membrane permeability coefficients (Pe) (cm/s) were calculated by the following formula: Cequilibrium=[…] Pe=[−ln(1−CA/Cequilibrium)]/S×(1/VD+1/VA)×t Cequilibrium: Equilibrium concentration of the wells in the Donor side and Acceptor side plates CD: Concentration after five hours of the wells in the Donor side plate (mmol/L) VD: Volume of the standard solution added to the wells in the Donor side plate (0.32 mL) CA: Concentration after five hours of the wells in the Acceptor side plate (mmol/L) VA: Volume of the PBS containing 20% of methanol added to the wells in the Acceptor side plate (0.2 mL) S: Surface of the membrane (0.3 cm^2) t: Standing time 18,000 s (=5 hrs).

A549 cells [5] = assay: In vitro cytotoxicity of the peptide derivative (I), MTS method, A549 cells; type: cell-based, human; settings: Homo sapiens
Excerpt: (§4) The cytotoxicity of the peptide derivative (I) or a pharmaceutically acceptable salt thereof, or the conjugate including the peptide derivative (I) or a pharmaceutically acceptable salt thereof can be evaluated with an in vitro study. Examples of the in vitro studies include the trypan blue dye exclusion method, the lactate dehydrogenase (LDH) activity assay, [^3H]thymidine incorporation method, or propidium iodide nuclear stain that each measures the number of dead cells or surviving cells post treated with the compound; a method using dyes such as MTT, MTS, and WST (Current Protocol in Toxicology, (2000), 2.6.1-2.6.27); or a method in which the amount of ATP is measured using CellTiter-Glow (Promega Corporation) and the like, and preferably include the method in which the number of surviving cells post treated with the compound is measured by using the MTS method to determine values of the cytotoxicity at that time from 50% effect-concentration (EC50). Furthermore, in the evaluation of the cytotoxicity of the conjugate including the peptide derivative (I) or a pharmaceutically acceptable salt thereof, preferred method is the one that for a certain time, cells are treated with a medium containing the compound, the cells are then transferred to a medium not containing the compound, and the number of surviving cells are measured after cultivation for additional certain time (Bioconjugate Chemistry., 2014; 25: pp. 560-568). For the in vitro studies, human ovarian cancer cell SKOV-3 cells, human alveolar basement epithelial gland cancer cell A549 cells, mouse lymphocytic leukocyte L1210 cells and the like are used.

SKOV-3 cells [6] = assay: In vitro cytotoxicity of the peptide derivative (I), MTS method, SKOV-3 cells; type: cell-based, human; settings: Homo sapiens, SK-OV-3
Excerpt: as §4

L1210 cells [7] = assay: In vitro cytotoxicity of the peptide derivative (I), MTS method, L1210 cells; type: cell-based, mouse; settings: Mus musculus
Excerpt: as §4

Compound | EC50 (SKOV-3 cells [1]) | EC50 (A549 cells [2]) | EC50 (L1210 cells [3]) | Papp at 5 h, 200 μmol/L [4] | EC50 (A549 cells [5]) | EC50 (SKOV-3 cells [6]) | EC50 (L1210 cells [7])
CC[C@H](C)C([C@@H](CC(=O)N1CCC[C@H]1[C@H](OC)[C@@H](C)C(=O)N[C@@H](Cc1ccccc1)c1nc(C(=O)N(C)CCSSCCN(C)C(=O)CCOCCOCCOCCOCCOCCOCCOCCOCCOCCOCCOCCOCCNC(=O)CCN2C(=O)CC(SCCNC(=O)[C@H](CCC(=O)O)NC(=O)CC[C@H](NC(=O)c3ccc(NCc4c[nH]c5nc(N)nc(=O)c-5n4)cc3)C(=O)O)C2=O)cs1)OC)N(C)C(=O)[C@@H](NC(=O)[C@H](C(C)C)N(C)C)C(C)C (stereo in doubt) [Example 13] | 19.4 nM | > 300 nM | 36 nM | – | – | – | –
CC[C@H](C)[C@@H]([C@@H](CC(=O)N1CCC[C@H]1[C@H](OC)[C@@H](C)C(=O)N[C@@H](Cc1ccccc1)c1nc(C(=O)NCCN)cs1)OC)N(C)C(=O)[C@@H](NC(=O)[C@H](C(C)C)N(C)C)C(C)C [Reference Example 12, N-(2-aminoethyl)-2-((S)-1-(((2S,3R)-3-((S)-1-((3R,4S,5S)-4-((S)-2-((S)-2-(dimethylamino)-3-methylbutanamido)-N, 3-dimethylbutanamido)-3-methoxy-5-methylheptanoyl)pyrrolidin-2-yl)-3-methoxy-2-methylpropanamido)-2-phenylethyl)thiazole-4-carboxamidedihydrochloride, reference compound] | – | – | – | 0.01 ×10⁻⁶ cm/s | > 10 nM | > 10 nM | > 50 nM
CC[C@H](C)[C@@H]([C@@H](CC(=O)N1CCC[C@H]1[C@H](OC)[C@@H](C)C(=O)N[C@@H](Cc1ccccc1)c1nc(C(=O)NCCNC)cs1)OC)N(C)C(=O)[C@@H](NC(=O)[C@H](C(C)C)N(C)C)C(C)C [Reference Example 14, 2-((S)-1-(((2S,3R)-3-((S)-1-((3R,4S,5S)-4-((S)-2-((S)-2-(dimethylamino)-3-methylbutanamido)-N,3-dimethylbutanamido)-3-methoxy-5-methylheptanoyl)pyrrolidin-2-yl)-3-methoxy-2-methylpropanamido)-2-phenylethyl)-N-(2-(methylamino)ethyl)thiazole-4-carboxamidedihydrochloride, reference compound] | – | – | – | 0.004 ×10⁻⁶ cm/s | 9.85 nM | > 10 nM | 26.8 nM

— patent US10792365B2, “Peptide derivative and use thereof” (Toray Industries, Inc., priority 2016, dated 2020)
